Here are results for two molecules from patent US20200245620A1 (priority 2018, published 2020).

In this test the test system is Fusarium graminearum. Kind of test: microbe, parasite or virus in culture. The class given is cell-based. Conditions: for EC50: Fusarium graminearum.

The structures appear in SMILES notation. Values after ≈ are worked out from the molar mass of the structure shown.

In the case of `OCC1=C[C@H](N[C@H]2C[C@H](CO)[C@@H](O[C@@H]3O[C@H](CO)[C@@H](O)[C@H](O)[C@H]3O)[C@H](O)[C@H]2O)[C@H](O)[C@@H](O)[C@@H]1O` [Jinggangmycin], under “sensitive and fungicide-resistant strains, alone or mixed with ipconazole”, the “inhibitory activity on the growth in vitro” value is listed as “almost does not have inhibitory activity”.
One may read the EC50 as the concentration at which the effect is half-maximal. A high value points to lower potency in that assay. In the case of `CC(C)C1CCC(Cc2ccc(Cl)cc2)C1(O)Cn1cncn1` (stereo not drawn) [Ipconazole], the EC50 (F.g carbendazim-resistant strains) was 0.946 µg/mL (≈ 2.83 µM) and the EC50 (F.g phenamacril-resistant strains) stood at 0.101 µg/mL (≈ 0.303 µM).
